Assay results reported in patent publication US12663426B2, “Method and composition for measurement of nitric oxide” (The University of Chicago, priority 2019, dated 2026).

The compounds below were run on S-nitrosylation at the Golgi (assay: Anti-S-nitrosocysteine immunostaining of T-47D cells). Settings: not given.
Assay type: cell-based
Method: (§1) Immunofluorescence staining. Cells were cultured on a glass bottom 3.5 cm imaging dish to reach 60% confluency. […] Treated cells were then washed three times with 1× PBS (pH 7.4) and fixed using, 4% paraformaldehyde at room temperature (RT, 15 min). Subsequently, cells were permeabilized using 0.25% triton X-100 followed by blocking using 3% BSA in 1× PBS. Cells were then incubated with indicated primary antibodies—mouse monoclonal anti-eNOS antibody (SantaCruz Cat #sc-376751), Polyclonal Anti-S-nitrosocysteine antibody (Abeam Cat #ab94930 or Abeam Cat #ab50185), Rabbit polyclonal Anti-Giantin antibody (Abeam Cat #ab24586) or Mouse monoclonal Anti-GM130 antibody (BD Biosciences Cat #610822) in blocking buffer (3% BSA in 1× 4 PBS) for 1 hour at RT. Cells were then washed for 5 min with 1× PBS (3×). Respective secondary antibodies conjugated with either Alexafluor 488 or Alexafluor 647 were added to the cells and incubated for 1 hr at RT. Cells were washed again to remove excess secondary antibody using 1× PBS for 5 min (3×). Hoechst 33342 (5 μM) was added 10 min prior to imaging to stain nuclear DNA. Cells were then imaged on a Leica SP8 laser scanning confocal microscope using excitation wavelengths 405 nm (Hoechst), 488 nm (AlexaFluor 488) and 647 nm (AlexaFluor 647). Images were processed using Fiji and maximum z-projection of 2-3 z-planes are used in representative images.
In order to address the significance of the […] population of NOS3 at the TGN, T-47D cells were immunostained using an antibody specific to S-nitrosocysteine.
Similar observations were made in MCF-7 cells upon NO depletion (FIG. 23). These studies reveal that the Golgi is a cellular hot-spot for 5-nitrosylation of proteins by NOS3, where it is essential for the maintenance of Golgi architecture in breast cancer cells. […] In addition to Golgi fragmentation, NO scavenging also hampered cell growth by inducing cell sensescence (FIG. 24).
With COC(=O)[C@@H](N)CCCNC(=N)N[N+](=O)[O-] [L-NAME, L-N^G-Nitroarginine methyl ester] the “S-nitrosylation at the Golgi” value was “dramatically reduced”.
CC1(C)N([O])C(c2ccccc2)=[N+]([O-])C1(C)C [PTIO, 2-phenyl-4,4,5,5-tetramethylimidazoline-1-oxyl 3-oxide] was tested, and the “S-nitrosylation at the Golgi” value was “greatly diminished”.

What follows are compounds tested on T-47D cells (assay: Golgi fragmentation (Giantin/GM130 immunofluorescence)). Settings: not given.
Assay type: cell-based
Method: as §1
Golgi fragmentation was quantified with immunofluorescence images of Golgi structural protein Giantin. Merge images of Hoechst and Giantin allowed identification of cell numbers and enumeration of Golgi fragments per cell (≤3 Golgi fragments per cell was considered intact Golgi) (Lee, J. E. et al. Dependence of Golgi apparatus integrity on nitric oxide in vascular cells: implications in pulmonary arterial hypertension. Am. J. Physiol. Heart Circ. Physiol. 300, H1141-58 (2011)). […]
Small molecule inhibitors were then screened to identify the molecular pathway by which NOS3 inhibition induces Golgi fragmentation. This is based on the rationale that inhibiting a protein on this pathway should also block methylene blue-induced Golgi fragmentation. […] A range of small molecule inhibitors against kinases that have previously ascribed roles in Golgi fragmentation were then used. DNA-PK with NU7441 was ruled out (Farber-Katz, S. E. et al. DNA damage triggers Golgi dispersal via DNA-PK and GOLPH3. Cell 156, 413-427 (2014)). Compounds containing an indirubin core have broad specificity for Cyclin dependent kinases (CDKs) and Src kinases. […] CDK1, CDK2 and CDK5 were ruled out, using (R)-Roscovitine (Rosco).
In the case of C[C@@H](N)[C@H]1CC[C@H](C(=O)Nc2ccncc2)CC1 [Y-27632], the “effect on methylene blue (MB)-induced Golgi fragmentation” value (from here on “effect on methylene blue”) is reported as “not mediated by apoptosis”.
In the case of CN(C)c1ccc2nc3ccc(=[N+](C)C)cc-3sc2c1 [Methylene Blue], the “Golgi fragmentation by treatment alone” value is reported as “fragmented morphology”.
COC(=O)[C@@H](N)CCCNC(=N)N[N+](=O)[O-] [L-NAME, L-N^G-Nitroarginine methyl ester] was tested, and the “Golgi fragmentation by treatment alone” value was “underwent fragmentation”.
O=C1Nc2ccccc2/C1=C1/Nc2ccccc2/C1=N\OCC(O)CO (stereo not drawn) [indirubin-e804] was tested, and the “effect on methylene blue” value was “completely blocked”.
In the case of C/C1=C/C(=O)O[C@@H]2C[C@@H](CC[C@H](C)/C=C\CC1)O[C@@](O)([C@@H]1CSC(=O)N1)C2 [Latrunculin B], the “effect on methylene blue” value is reported as “completely blocked”.
O=c1cc(N2CCOCC2)oc2c(-c3cccc4c3sc3ccccc34)cccc12 [NU7441] was tested, and the “effect on methylene blue” value was “ruled out”.
In the case of CN(C)S(=O)(=O)c1ccc2c(c1)/C(=C/c1cc3c([nH]1)CCCC3)C(=O)N2 [SU6656], the “reduction of MB-induced Golgi fragmentation” value is reported as about 50%.
In the case of CC1(C)CC(O)CC(C)(C)N1[O] [TEMPOL], the “Golgi fragmentation by treatment alone” value is reported as “none of these treatments fragmented the Golgi”.
With CC[C@H](CO)Nc1nc(NCc2ccccc2)c2ncn(C(C)C)c2n1 [(R)-Roscovitine] the “effect on methylene blue” value was “ruled out”.
With O=C1Nc2ccccc2/C1=C1/Nc2ccccc2/C1=N\O [indirubin-3′-monoxime] the “effect on methylene blue” value was “completely blocked”.
For CC1(C)N([O])C(c2ccccc2)=[N+]([O-])C1(C)C [PTIO, 2-phenyl-4,4,5,5-tetramethylimidazoline-1-oxyl 3-oxide], the “Golgi fragmentation by treatment alone” value was “fragmented morphology”.
In the case of Hemoglobin, the “Golgi fragmentation by treatment alone” value is reported as “fragmented morphology”.

These compounds were tested against T1, murine TLR-9 (Mus musculus, UniProt Q9EQU3) (assay: Endosomal NO in primary mouse microglia with NOckout^mCpG). Settings: primary microglial cells, NOckout^mCpG 500 nM 120 min, without or with 200 nM BAF.
T1 construct: endogenous in cells; host or cells: primary microglia from C57BL/6 mice
T1 sequence (Q9EQU3 26-1032): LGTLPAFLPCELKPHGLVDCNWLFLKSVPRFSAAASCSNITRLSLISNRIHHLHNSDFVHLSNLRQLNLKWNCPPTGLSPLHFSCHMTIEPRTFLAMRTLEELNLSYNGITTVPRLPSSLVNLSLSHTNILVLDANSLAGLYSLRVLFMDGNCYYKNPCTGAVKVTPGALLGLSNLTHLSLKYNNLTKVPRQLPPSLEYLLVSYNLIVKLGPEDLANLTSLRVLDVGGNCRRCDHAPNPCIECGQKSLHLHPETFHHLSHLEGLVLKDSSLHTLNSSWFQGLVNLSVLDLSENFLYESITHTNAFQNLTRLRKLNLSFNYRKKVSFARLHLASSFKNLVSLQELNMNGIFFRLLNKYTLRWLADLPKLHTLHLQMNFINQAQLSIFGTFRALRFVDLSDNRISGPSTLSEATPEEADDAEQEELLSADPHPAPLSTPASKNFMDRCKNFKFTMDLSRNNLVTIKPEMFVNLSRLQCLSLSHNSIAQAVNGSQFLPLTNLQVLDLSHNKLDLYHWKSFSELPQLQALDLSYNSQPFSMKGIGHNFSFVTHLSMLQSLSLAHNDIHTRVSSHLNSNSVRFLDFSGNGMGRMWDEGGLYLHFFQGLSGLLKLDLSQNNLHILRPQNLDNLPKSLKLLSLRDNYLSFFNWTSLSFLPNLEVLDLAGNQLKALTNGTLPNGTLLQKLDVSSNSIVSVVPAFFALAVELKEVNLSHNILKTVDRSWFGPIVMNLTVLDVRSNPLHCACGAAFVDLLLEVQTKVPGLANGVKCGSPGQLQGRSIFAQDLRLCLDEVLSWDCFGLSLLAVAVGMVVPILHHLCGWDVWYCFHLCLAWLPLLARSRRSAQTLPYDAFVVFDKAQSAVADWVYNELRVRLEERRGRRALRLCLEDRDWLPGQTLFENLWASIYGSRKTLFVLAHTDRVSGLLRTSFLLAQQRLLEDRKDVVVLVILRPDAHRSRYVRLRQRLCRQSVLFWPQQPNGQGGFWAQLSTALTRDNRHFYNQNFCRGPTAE
Assay type: cell-based
Excerpt: Image analysis: A MATLAB based program called Findosome was used to calculate the (G/R) values of individual endosomes from the acquired images. Maximum Z-projected images created using Fiji (NIH) were fed to Findosome to pick endosomal compartments as ROI corresponding to individual endosomes based on the A647 channel intensity. For each ROI, the program calculates fluorescence intensities both in the normalizing channel (A647, R) as well as in the DAR (G) channel. The results were exported as an excel file. From the results, (G/R) value for individual endosomes can be calculated. Phagosomal (G/R) values from the zebrafish microglia are calculated using Fiji software. Images were imported to Fiji and maximum Z-projected images were created. ROI were manually drawn around clearly identifiable phagosomes using the normalizing channel A647 intensity. Fluorescence intensities in A647 and DAR channels were calculated. G/R values are either represented as heat map images using Fiji or as bar graph using Origin software. Intracellular measurements of (G/R) values was performed in GFP colocalized microglia. For (G/R) ratio quantification experiments, only those vesicles that are present in both green (G) and red (R) channels were considered. […]
CO/C1=C\C(C)=C\[C@@H](C)[C@@H](O)[C@@H](C)C/C(C)=C/C=C/[C@H](OC)[C@@H]([C@@H](C)[C@@H](O)[C@H](C)[C@@]2(O)C[C@@H](O)[C@H](C)[C@@H](C(C)C)O2)OC1=O [BAF] was tested, and the “endosomes with G/R value≥0.45” value was 50%.

The compounds below were run against T2, NOS3 (Homo sapiens, UniProt P29474) (assay: Steady state NOS3 activity imaging at plasma membrane and TGN with NOckout probes). Settings: T-47D cells.
T2 construct: endogenous, basal NOS3 activity was estimated at each of these sub-cellular locations in T-47D cells; endogenous in cells; host or cells: T-47D cells
Assay type: cell-based
Method: Image acquisition. T-47D cells were maintained as mentioned above in the cell culture section. Cells were washed twice with Hank's balanced salt solution (HBSS) before incubating them with 500 nM NOckout^TGN for 30 min or 500 nM NOckout^PM for 10 min at 37° C. followed by 3 washes with HBSS solution to remove any unloaded sensors. For steady state imaging (FIG. 1), cells were treated with indicated agonists or antagonists for 1 hr in complete RPMI-1640 medium. Care was taken not to exceed the final concentration of DMSO>1% at any time of the experiment. Additionally, 1% DMSO was used as a negative control in untreated (Basal) cells. […] The cells are then washed and imaged (FIG. 1f).
For simultaneous imaging cells were treated with 500 nM NOckout^TGN for 30 min where last 10 min cells were co-incubated with 500 nM NOckout^PM. In order to achieve lowest signal (PTIO, FIG. 1e-f) or to achieve bleaching profile (PTIO, FIG. 3e) cells were pre-treated with 500 μM PTIO for 15 minutes. Images were captured on a Laser scanning confocal Leica SP8 microscope using 63×, 1.4UV NA objective. Desired excitation and emission wavelengths was achieved using white light laser along with notch filters and acousto-optical tunable filters. A488, DAR and A647 were imaged using the following settings—Alexa488 (λex=488 nm, λem=500 nm to 540 nm), DAR (λex=554 nm, λem=565 nm to 610 nm) and Alexa647 (λex=647 nm, λem=665 nm to 710 nm).
Image analysis was performed using Fiji (Schindelin, J. et al. Fiji: an open-source platform for biological-image analysis. Nat Methods 9, 676-682 (2012)). Auto-fluorescence was subtracted from images for ratiometric analysis. For representation, images were further processed by smooth and despeckle functions. In order to present G/B or G/R images, a mask for each image was constructed using Otsu thresholding method, and mask-multiplied images were used for division. The ROI plugin in Fiji was used to select either TGN (Alexa647 channel) or PM (Alexa488 channel) and these ROIs were recalled in DAR channel to measure intensity in all three channels.
Next, endogenous, basal NOS3 activity was estimated at each of these sub-cellular locations in T-47D cells without explicitly activating NOS3. To do this, the ratiometric NOckout^PM response, i.e. the G/B ratio, was first measured under conditions where cells were depleted of NO using the NO scavenger 2-phenyl-4,4,5,5-tetramethylimidazoline-1-oxyl 3-oxide (PTIO, 300 μM) (Goldstein, S., Russo, A. & Samuni, A. Reactions of PTIO and carboxy-PTIO with *NO, *NO2, and O2−*. J Biol. Chem. 278, 50949-50955 (2003)). […] These two extreme cases provide the minimum and maximum G/B signals afforded by NOckout^PM in the cell (FIG. 1e-f). The G/B values under any subsequent condition are normalized to the maximum G/B signal. […]
In the case of Nc1ncnc2c1ncn2[C@@H]1O[C@H](COP(=O)(O)OP(=O)(O)OP(=O)(O)O)[C@@H](O)[C@H]1O [ATP], the “G/B and G/R values of NOckout probes (NOS3 activity)” value (“G/B and G/R values of NOckout probes” for short) is reported as “significantly higher G/B and G/R ratios”.
COC(=O)[C@@H](N)CCCNC(=N)N[N+](=O)[O-] [L-NAME, L-N^G-Nitroarginine methyl ester] was tested, and the “G/B and G/R values of NOckout probes” value was “reflected those of PTIO-treated cells”.
With C[C@]12CC[C@@H]3c4ccc(O)cc4CC[C@H]3[C@@H]1CC[C@@H]2O [E2, 17 β-Estradiol] the “G/B and G/R values of NOckout probes” value was “selectively activated NOS3 only at the plasma membrane”.
